Laboratory results from patent US8937090B2, “Parakeratosis inhibitor, pore-shrinking agent and external composition for skin” (Shiseido Company, Ltd., priority 2005, dated 2015).

How the values were obtained:
panel of 20 women = test: Sensory irritation tests; type: in vivo, human; conditions: for sensory irritation: in words, summary of Table 4; for Evaluation (sensory irritation, class of average rating): 1 mL to cheek, rated for ten minutes
Description: 1 mL of a control aqueous solution and the sample aqueous solution prepared in Example 1 were applied using a cotton swab to the left or right cheek, respectively, of each member of a panel of 20 women, and the irritating sensation was evaluated every 30 seconds for ten minutes beginning immediately after application, whereby a final evaluation was reported. The evaluation of the irritating sensation was made based on the following four levels of rating criteria, and the average rating was calculated, whereby the average was classified by the following criteria.
3: Continuation is not possible because of extremely strong irritation, such as tingling sensation, burning sensation, stinging sensation, itching, and the like.
2: Intolerable because of strong irritation, such as tingling sensation, burning sensation, stinging sensation, itching, and the like.
1: Tolerable, but with slight irritation such as tingling sensation, burning sensation, stinging sensation, itching, and the like.
0: Not particularly irritating.
(Evaluation Criteria) • A: average rating of less than 0.2 • B: average rating of from 0.2 to less than 1.0 • C: average rating of from 1.0 to less than 2.0 • D: average rating of 2.0 or greater

[1] = tested on: cheeks of healthy human males; test: Human pore-shrinking effect (replica of cheek pores, three-dimensional laser scanning microscope); type: in vivo; conditions: for pore-shrinking effect: in words, summary of Table 2; for Replica assessment value (average of n = 5): twice a day for one month, pore size rating (1-13) after minus before application, control 0.3
Description: An experiment was conducted whereby a sample was applied twice a day for one month to the cheeks of healthy human males in groups of 5 men each. Aqueous solutions (containing 15 mass % of ethanol) of 3 mass % of the β-alanine derivative or a salt thereof were prepared mainly as the evaluation sample. The pH was regulated by hydrochloric acid or sodium hydroxide so as to be 7.0 to 7.5. When the sample solubility was low, the solution was prepared accordingly. The control was an aqueous 15% ethanol solution. The sample aqueous solution and the control aqueous solution were applied to one half of the face at a time.
A replica was collected before and after continuous application, and changes in the shape of the pores at the same site were observed using a three-dimensional laser scanning microscope. The size of the pores was visually evaluated in the 13 steps of 1 through 13 (with the pores becoming larger as the numbers became larger), the difference in the ratings before and after application (after application—before application) was calculated, and the efficacy of each sample was studied using this difference as the replica assessment value.

hairless mice (HR-1) = test: Inhibiting effect on rough skin induced by oleic acid application (transepidermal water loss); type: in vivo, mouse; parameters: ΔTEWL value: unit not given here; conditions: for rough skin preventing/ameliorating effect (ΔTEWL value versus control aqueous solution): in words, summary of Table 3; for ΔTEWL value: average of four mice, 3 days after 10 mass % oleic acid, control 12.0, increase = rough skin worse
Description: In order to investigate the inhibiting effect of β-alanine derivatives and salts thereof on rough skin induced by oleic acid application, the transepidermal water loss (TEWL value) before and after application was measured, the difference was compared with the control (control aqueous solution), and the effect was determined. […] The TEWL was determined using the TM210 TEWA Meter (Courage+Khazaka Electronic GmBH).
100 μL of 10 mass % oleic acid (solvent: ethanol) was applied to the back of hairless mice (HR-1, four mice per group). Then a sample solution (β-alanine derivatives) was applied 100 μL at a time. This procedure was continued for three days. On the following day, the TEWL value of the back was determined and the values of the four animals were averaged.

hairless mouse (HR-1) = test: Parakeratosis-inhibiting effect test (oleic acid applied to back of hairless mouse; visual rough skin evaluation and parakeratosis value); type: in vivo; conditions: for parakeratosis-inhibiting effect: in words, summary of Table 1; for Visual evaluation (average of four animals): rough skin score, control = 2.0, no skin roughness = 0.0, 3 days application after 10 mass % oleic acid; for Parakeratosis value (average of four animals): scale 1.0 to 3.0, higher = parakeratosis advanced, control 2.0
Description: Aqueous solutions (containing 30 mass % of ethanol) of 3 mass % of a β-alanine derivative or salt thereof were prepared mainly as the evaluation sample. The pH was regulated by hydrochloric acid or sodium hydroxide so as to be 7.0 to 7.5. When sample solubility was low, the solution was prepared accordingly.
100 μL of 10 mass % oleic acid solution (solvent: ethanol) were applied to the back of a hairless mouse (HR-1; Hoshino Laboratory Animals). Then the sample solution (β-alanine derivative, and the like) was applied 100 μL at a time. This procedure was continued for three days. […] At the same time, the stratum corneum at the back of the hairless mouse was peeled off with tape, the nuclei were stained by hematoxylin, and the degree of parakeratosis was observed and evaluated by a parakeratosis value within a range of 1.0 to 3.0 (in 0.25 increments).

| SMILES | sensory irritation (panel of 20 women) | Evaluation (sensory irritation, class of average rating) (panel of 20 women; sample 3 mass %) | pore-shrinking effect [1] | Replica assessment value (average of n = 5) ([1]; sample 3 mass %) | rough skin preventing/ameliorating effect (ΔTEWL value versus control aqueous solution) (hairless mice (HR-1)) | ΔTEWL value (hairless mice (HR-1); sample 3 mass %) | parakeratosis-inhibiting effect (hairless mouse (HR-1)) | Visual evaluation (average of four animals) (hairless mouse (HR-1); sample 3 mass %) | Parakeratosis value (average of four animals) (hairless mouse (HR-1); sample 3 mass %) | Evaluation (sensory irritation, class of average rating) (panel of 20 women; sample 1.5 mass %) | Replica assessment value (average of n = 5) ([1]; sample 1.0 mass %) | ΔTEWL value (hairless mice (HR-1); sample 1.5 mass %) | Visual evaluation (average of four animals) (hairless mouse (HR-1); sample 1.5 mass %) | Parakeratosis value (average of four animals) (hairless mouse (HR-1); sample 1.5 mass %) |
| --- | --- | --- | --- | --- | --- | --- | --- | --- | --- | --- | --- | --- | --- | --- |
| O=C(O)CCN1CCCCC1 [3-(1′-piperidine)-propionate, 3-(1′-piperidine)-propionic acid] | no problem of sensory irritation | A (average rating of less than 0.2) | effect was seen | −1.2 | effect was seen | 5.5 | reduced the parakeratosis value | 1.4 | 1.4 | – | – | – | – | – |
| N=C(N)NCCC(=O)O [3-guanidinopropionic acid, reference compound] | – | – | – | – | no effect was seen | 12.3 | effect was not seen | 2.1 | 2.1 | – | – | – | – | – |
| NC(=O)NCCC(=O)O [3-ureidopropionic acid, reference compound] | – | – | – | – | no effect was seen | 11.9 | effect was not seen | 2.0 | 2.2 | – | – | – | – | – |
| COc1ccccc1C(=O)NCCC(=O)O [N-(2′-methoxybenzoyl)-β-alanine] | no problem of sensory irritation | A (average rating of less than 0.2) | effect was seen | −0.9 | effect was seen | 7.0 | reduced the parakeratosis value | 1.1 | 1.1 | – | – | – | – | – |
| O=C(O)CCNc1ccccn1 [N-(2′-pyridyl)-β-alanine] | no problem of sensory irritation | A (average rating of less than 0.2) | effect was seen | −0.8 | effect was seen | 5.5 | reduced the parakeratosis value | 1.4 | 1.3 | – | – | – | – | – |
| COc1cc(C(=O)NCCC(=O)O)cc(OC)c1OC [N-(3′,4′,5′-trimethoxybenzoyl)-β-alanine] | no problem of sensory irritation | A (average rating of less than 0.2) | effect was seen | −0.6 | effect was seen | 6.9 | reduced the parakeratosis value | 1.1 | 1.1 | – | – | – | – | – |
| COc1cccc(C(=O)NCCC(=O)O)c1 [N-(3′-methoxybenzoyl)-β-alanine] | no problem of sensory irritation | A (average rating of less than 0.2) | effect was seen | −1.0 | effect was seen | 6.9 | reduced the parakeratosis value | 1.2 | 1.2 | – | – | – | – | – |
| COc1ccc(C(=O)NCCC(=O)O)cc1 [N-(4′-methoxybenzoyl)-β-alanine] | no problem of sensory irritation | – | effect was seen | – | effect was seen | – | reduced the parakeratosis value | – | – | A (average rating of less than 0.2) | −1.2 | 5.7 | 1.2 | 1.1 |
| CC(=O)NCCC(=O)O [N-acetyl-β-alanine, reference compound] | – | – | – | – | no effect was seen | 12.1 | effect was not seen | 1.8 | 1.7 | – | – | – | – | – |
| O=C(O)CCNS(=O)(=O)c1ccccc1 [N-benzenesulfonyl-β-alanine] | no problem of sensory irritation | A (average rating of less than 0.2) | effect was seen | −0.7 | effect was seen | 5.4 | reduced the parakeratosis value | 1.1 | 1.2 | – | – | – | – | – |
| O=C(O)CCNC(=O)c1ccccc1 [N-benzoyl-β-alanine] | no problem of sensory irritation | A (average rating of less than 0.2) | effect was seen | – | effect was seen | 4.0 | reduced the parakeratosis value | 1.1 | 1.1 | – | −1.5 | – | – | – |
| O=C(O)CCNCc1ccccc1 [N-benzyl-β-alanine] | no problem of sensory irritation | A (average rating of less than 0.2) | effect was seen | −0.8 | effect was seen | 8.9 | reduced the parakeratosis value | 1.2 | 1.2 | – | – | – | – | – |
| CN(CCC(=O)O)C1CCCCC1 [N-cyclohexyl-N-methyl-β-alanine] | no problem of sensory irritation | A (average rating of less than 0.2) | effect was seen | −0.8 | effect was seen | 5.5 | reduced the parakeratosis value | 1.4 | 1.4 | – | – | – | – | – |
| C[C@H](N)C(=O)O [alanine, reference compound] | strong sensory irritation | D (average rating of 2.0 or greater) | – | – | – | – | – | – | – | – | – | – | – | – |
